Values after ≈ are worked out from the molar mass of the structure shown.
Legend:
[1] = target: Isocitrate lyase (Magnaporthe oryzae (strain 70-15 / FGSC 8958) (Rice blast fungus)(Pyricularia oryzae), UniProt P0CT06); assay: Inhibition of Magnaporthe grisea isocitrate lyase; set-up: species or system Pyricularia grisea
[2] = test system: Staphylococcus aureus; assay: Antibacterial activity against Staphylococcus aureus ATCC 65389 after 24 hrs by twofold dilution method; assay type: functional; details: ATCC 65389, 24 h
[3] = test system: Bacillus subtilis; assay: Antibacterial activity against Bacillus subtilis ATCC 6633 after 24 hrs by twofold dilution method; assay type: functional; details: ATCC 6633, 24 h
[4] = test system: Micrococcus luteus; assay: Antibacterial activity against Micrococcus luteus IFC 12708 after 24 hrs by twofold dilution method; assay type: functional; details: IFC 12708, 24 h
[5] = test system: Proteus vulgaris; assay: Antibacterial activity against Proteus vulgaris ATCC 3851 after 24 hrs by twofold dilution method; assay type: functional; details: ATCC 3851, 24 h
[6] = test system: Salmonella typhimurium; assay: Antibacterial activity against Salmonella Typhimurium ATCC 14028 after 24 hrs by two-fold dilution method; assay type: functional, Salmonella enterica subsp. enterica serovar Typhimurium; details: Salmonella enterica, ATCC 14028, 24 h
[7] = test system: Escherichia coli; assay: Antibacterial activity against Escherichia coli ATCC 25922 after 24 hrs by twofold dilution method; assay type: functional; details: ATCC 25922, 24 h
[8] = test system: K562; assay: Cytotoxicity against human K562 cells after 48 hrs by SRB assay; assay type: functional; details: K562, 48 h, read-out: LC50 (the source's name)

Chain of Isocitrate lyase (P0CT06 whole entry): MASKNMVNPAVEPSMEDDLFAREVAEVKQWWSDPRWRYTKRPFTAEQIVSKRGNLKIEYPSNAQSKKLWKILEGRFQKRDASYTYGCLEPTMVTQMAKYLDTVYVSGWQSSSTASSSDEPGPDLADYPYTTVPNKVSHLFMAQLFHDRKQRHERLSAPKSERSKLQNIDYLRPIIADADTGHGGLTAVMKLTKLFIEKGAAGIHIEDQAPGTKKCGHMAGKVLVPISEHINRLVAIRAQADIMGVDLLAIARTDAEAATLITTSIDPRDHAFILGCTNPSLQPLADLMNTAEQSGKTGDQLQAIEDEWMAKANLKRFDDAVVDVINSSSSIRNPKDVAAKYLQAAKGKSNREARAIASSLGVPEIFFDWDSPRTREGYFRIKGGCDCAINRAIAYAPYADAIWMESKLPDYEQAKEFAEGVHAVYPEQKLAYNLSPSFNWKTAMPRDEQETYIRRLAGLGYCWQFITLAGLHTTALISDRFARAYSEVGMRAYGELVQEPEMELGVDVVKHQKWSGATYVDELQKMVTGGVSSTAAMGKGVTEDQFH

## O=C(O)CC[N+](=O)[O-]
[1]
  IC50: 50.8 µM

## CC1=C(O)/C(=C/[C@H](C)CCC/C(C)=C/CC/C(C)=C/CCc2ccoc2)OC1=O
[2]
  MIC: 12.5 µg/mL (≈ 31.4 µM)
[3]
  MIC: 6.25 µg/mL (≈ 15.7 µM)
[4]
  MIC: 6.25 µg/mL (≈ 15.7 µM)
[5]
  MIC: 6.25 µg/mL (≈ 15.7 µM)
[6]
  MIC: 6.25 µg/mL (≈ 15.7 µM)
[7]
  MIC: > 100 µg/mL
[8]
  CC50: 43.7 µg/mL (≈ 110 µM)
[1]
  IC50: 67.7 µM

## C/C(=C\CC/C(C)=C/C[C@H](O)c1ccoc1)CC/C=C(\C)CC(=O)CC(C)C
[2]
  MIC: > 100 µg/mL
[3]
  MIC: 6.25 µg/mL (≈ 16.2 µM)
[4]
  MIC: > 100 µg/mL
[5]
  MIC: > 100 µg/mL
[6]
  MIC: > 100 µg/mL
[7]
  MIC: > 100 µg/mL
[8]
  CC50: 5.7 µg/mL (≈ 14.7 µM)
[1]
  IC50: > 259 µM

## CC(=O)O[C@@H]1OC=C2[C@H]1[C@@]1(C)CC[C@H]3[C@@](C)(CC[C@H]4C(C)(C)CCC[C@]34C)[C@@H]1C[C@@H]2O
[2]
  MIC: > 100 µg/mL
[3]
  MIC: 3.12 µg/mL (≈ 7.25 µM)
[4]
  MIC: > 100 µg/mL
[5]
  MIC: > 100 µg/mL
[6]
  MIC: 12.5 µg/mL (≈ 29 µM)
[7]
  MIC: > 100 µg/mL
[8]
  CC50: 5.8 µg/mL (≈ 13.5 µM)
[1]
  IC50: > 232 µM

## CC(=O)O[C@@H]1OC=C2[C@@H](OC(C)=O)C[C@@H]3[C@](C)(CC[C@H]4[C@@]3(C)CC[C@H]3C(C)(C)CCC[C@@]34C=O)[C@H]21
[2]
  MIC: > 100 µg/mL
[3]
  MIC: > 100 µg/mL
[4]
  MIC: > 100 µg/mL
[5]
  MIC: > 100 µg/mL
[6]
  MIC: > 100 µg/mL
[7]
  MIC: > 100 µg/mL
[8]
  CC50: 17.5 µg/mL (≈ 36 µM)
[1]
  IC50: > 205 µM

## COC(=O)C1=CC[C@@H]2[C@](C)(CC[C@H]3[C@@]2(C)CC[C@H]2C(C)(C)CCC[C@@]23COC(C)=O)[C@H]1C=O
[2]
  MIC: 25 µg/mL (≈ 54.5 µM)
[3]
  MIC: 0.78 µg/mL (≈ 1.7 µM)
[4]
  MIC: 12.5 µg/mL (≈ 27.3 µM)
[5]
  MIC: 6.25 µg/mL (≈ 13.6 µM)
[6]
  MIC: 12.5 µg/mL (≈ 27.3 µM)
[7]
  MIC: > 100 µg/mL
[8]
  CC50: 8.6 µg/mL (≈ 18.8 µM)
[1]
  IC50: 120 µM

## COC(=O)C1=CC[C@@H]2[C@](C)(CC[C@H]3[C@@]2(C)CC[C@H]2C(C)(C)CCC[C@@]23COC(C)=O)[C@@H]1C=O
[2]
  MIC: > 100 µg/mL
[3]
  MIC: > 100 µg/mL
[4]
  MIC: > 100 µg/mL
[5]
  MIC: > 100 µg/mL
[6]
  MIC: > 100 µg/mL
[7]
  MIC: > 100 µg/mL
[8]
  CC50: 3.7 µg/mL (≈ 8.07 µM)
[1]
  IC50: > 218 µM

## CC(=O)O[C@@H]1OC(=O)C2=CC[C@@H]3[C@](C)(CC[C@H]4[C@@]3(C)CC[C@H]3C(C)(C)CCC[C@@]34CO)[C@H]21
[2]
  MIC: > 100 µg/mL
[3]
  MIC: 1.56 µg/mL (≈ 3.51 µM)
[4]
  MIC: 3.12 µg/mL (≈ 7.02 µM)
[5]
  MIC: > 100 µg/mL
[6]
  MIC: 6.25 µg/mL (≈ 14.1 µM)
[7]
  MIC: > 100 µg/mL
[8]
  CC50: 22.5 µg/mL (≈ 50.6 µM)
[1]
  IC50: > 225 µM

## CO[C@@H]1OCC2=CC[C@@H]3[C@](C)(CC[C@H]4[C@@]3(C)CC[C@H]3C(C)(C)CCC[C@@]34CO)[C@H]21
[2]
  MIC: > 100 µg/mL
[3]
  MIC: 50 µg/mL (≈ 124 µM)
[4]
  MIC: > 100 µg/mL
[5]
  MIC: > 100 µg/mL
[6]
  MIC: 6.25 µg/mL (≈ 15.5 µM)
[7]
  MIC: > 100 µg/mL
[8]
  CC50: 0.11 µg/mL (≈ 0.273 µM)
[1]
  IC50: 104 µM

## CC(=O)O[C@@H]1OC=C2[C@@H](OC(C)=O)C[C@@H]3[C@](C)(CC[C@H]4[C@@]3(C)CC[C@H]3C(C)(C)CCC[C@@]34CO)[C@H]21
[2]
  MIC: > 100 µg/mL
[3]
  MIC: 0.78 µg/mL (≈ 1.6 µM)
[4]
  MIC: 100 µg/mL (≈ 205 µM)
[5]
  MIC: > 100 µg/mL
[6]
  MIC: 6.25 µg/mL (≈ 12.8 µM)
[7]
  MIC: > 100 µg/mL
[8]
  CC50: 0.13 µg/mL (≈ 0.266 µM)
[1]
  IC50: > 205 µM

## CC(=O)OC[C@]12CCCC(C)(C)[C@@H]1CC[C@@]1(C)[C@@H]3CC=C(C(=O)O)[C@@H](C=O)[C@@]3(C)CC[C@@H]12
[2]
  MIC: > 100 µg/mL
[3]
  MIC: > 100 µg/mL
[4]
  MIC: > 100 µg/mL
[5]
  MIC: 100 µg/mL (≈ 225 µM)
[6]
  MIC: > 100 µg/mL
[7]
  MIC: > 100 µg/mL
[8]
  CC50: 4.2 µg/mL (≈ 9.45 µM)
[1]
  IC50: > 225 µM

## CC1=C(O)/C(=C/[C@H](C)CC/C=C(/C)CCC/C=C(/C)CCc2ccoc2)OC1=O
[2]
  MIC: 6.25 µg/mL (≈ 15.7 µM)
[3]
  MIC: 6.25 µg/mL (≈ 15.7 µM)
[4]
  MIC: 3.12 µg/mL (≈ 7.83 µM)
[5]
  MIC: 6.25 µg/mL (≈ 15.7 µM)
[6]
  MIC: 12.5 µg/mL (≈ 31.4 µM)
[7]
  MIC: > 100 µg/mL
[8]
  CC50: 7.3 µg/mL (≈ 18.3 µM)
[1]
  IC50: 78.3 µM

## CC1(C)CCC[C@@]2(CO)[C@H]1CC[C@]1(C)[C@@H]2CC[C@]2(C)c3cocc3CC[C@@H]12
[2]
  MIC: > 100 µg/mL
[3]
  MIC: 1.56 µg/mL (≈ 4.21 µM)
[4]
  MIC: 6.25 µg/mL (≈ 16.9 µM)
[5]
  MIC: > 100 µg/mL
[6]
  MIC: 12.5 µg/mL (≈ 33.7 µM)
[7]
  MIC: > 100 µg/mL
[8]
  CC50: 0.97 µg/mL (≈ 2.62 µM)
[1]
  IC50: 123 µM

## CC(=O)OC[C@]12CCCC(C)(C)[C@@H]1CC[C@]1(C)[C@@H]2CC[C@]2(C)c3cocc3CC[C@@H]12
[2]
  MIC: > 100 µg/mL
[3]
  MIC: 3.12 µg/mL (≈ 7.56 µM)
[4]
  MIC: 25 µg/mL (≈ 60.6 µM)
[5]
  MIC: > 100 µg/mL
[6]
  MIC: > 100 µg/mL
[7]
  MIC: > 100 µg/mL
[8]
  CC50: 2.3 µg/mL (≈ 5.57 µM)
[1]
  IC50: > 242 µM

## CC(=O)OC[C@]12CCCC(C)(C)[C@@H]1CC[C@@]1(C)[C@@H]3C[C@H](OC(C)=O)C4=CO[C@@H](OC(C)=O)[C@@H]4[C@@]3(C)CC[C@@H]12
[2]
  MIC: > 100 µg/mL
[3]
  MIC: > 100 µg/mL
[4]
  MIC: > 100 µg/mL
[5]
  MIC: > 100 µg/mL
[6]
  MIC: > 100 µg/mL
[7]
  MIC: > 100 µg/mL
[8]
  CC50: 6.8 µg/mL (≈ 12.8 µM)
[1]
  IC50: > 188 µM

## CC1(C)S[C@@H]2[C@H](NC(=O)[C@H](N)c3ccccc3)C(=O)N2[C@H]1C(=O)O [AMPICILLIN]
[2]
  MIC: 1.56 µg/mL (≈ 4.46 µM)
[3]
  MIC: 1.56 µg/mL (≈ 4.46 µM)
[4]
  MIC: 1.56 µg/mL (≈ 4.46 µM)
[5]
  MIC: 3.12 µg/mL (≈ 8.93 µM)
[6]
  MIC: 3.12 µg/mL (≈ 8.93 µM)
[7]
  MIC: 12.5 µg/mL (≈ 35.8 µM)

## COc1cccc2c1C(=O)c1c(O)c3c(c(O)c1C2=O)C[C@@](O)(C(=O)CO)C[C@@H]3O[C@H]1C[C@H](N)[C@H](O)[C@H](C)O1 [DOXORUBICIN]
[8]
  CC50: 4.9 µg/mL (≈ 9.02 µM)

From ChEMBL document CHEMBL1154134, “Scalarane sesterterpenes from the sponge Smenospongia sp” (J Nat Prod, 2008)
